Laboratory results: ChEMBL document CHEMBL5291721, “A preclinical secondary pharmacology resource illuminates target-adverse drug reaction associations of marketed drugs” (Nat Commun, 2023)

Experiments:
D(3) dopamine receptor = D(3) dopamine receptor (Homo sapiens, UniProt P35462)
[1] = molecular target: T1, 5-hydroxytryptamine receptor 1A (Homo sapiens, UniProt P08908); assay type: functional, cell-based
T1 sequence (P08908 whole entry): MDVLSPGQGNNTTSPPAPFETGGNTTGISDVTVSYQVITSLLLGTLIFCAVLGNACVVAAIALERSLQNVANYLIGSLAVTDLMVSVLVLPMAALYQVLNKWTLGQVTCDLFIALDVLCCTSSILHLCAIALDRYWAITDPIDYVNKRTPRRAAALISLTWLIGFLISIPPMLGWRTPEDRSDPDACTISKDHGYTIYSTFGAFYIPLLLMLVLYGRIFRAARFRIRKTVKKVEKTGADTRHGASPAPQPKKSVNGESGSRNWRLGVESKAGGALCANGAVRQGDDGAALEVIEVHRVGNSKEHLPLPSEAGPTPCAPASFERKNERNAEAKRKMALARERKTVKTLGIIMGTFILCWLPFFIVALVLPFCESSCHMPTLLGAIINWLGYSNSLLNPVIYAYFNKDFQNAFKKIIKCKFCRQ

[2] = molecular target: Beta-2 adrenergic receptor (Homo sapiens, UniProt P07550)
[3] = molecular target: T2, Alpha-1A adrenergic receptor (Homo sapiens, UniProt P35348); assay type: functional, cell-based
T2 sequence (P35348 whole entry): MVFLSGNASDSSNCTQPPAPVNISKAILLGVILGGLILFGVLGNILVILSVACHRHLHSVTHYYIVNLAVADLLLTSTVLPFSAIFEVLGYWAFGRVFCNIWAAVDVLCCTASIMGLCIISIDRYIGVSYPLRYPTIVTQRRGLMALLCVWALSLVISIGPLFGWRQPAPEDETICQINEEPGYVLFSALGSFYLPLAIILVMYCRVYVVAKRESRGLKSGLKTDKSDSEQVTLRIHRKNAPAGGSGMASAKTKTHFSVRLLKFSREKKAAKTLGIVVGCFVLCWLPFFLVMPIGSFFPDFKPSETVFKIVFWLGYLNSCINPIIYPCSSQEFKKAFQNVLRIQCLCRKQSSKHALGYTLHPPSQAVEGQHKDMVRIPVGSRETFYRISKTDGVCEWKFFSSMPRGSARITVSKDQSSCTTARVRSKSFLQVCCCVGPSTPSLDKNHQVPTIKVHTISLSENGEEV

[4] = molecular target: T3, Prostaglandin G/H synthase 1 (Rattus norvegicus, UniProt Q63921); assay type: functional
T3 sequence (Q63921 whole entry): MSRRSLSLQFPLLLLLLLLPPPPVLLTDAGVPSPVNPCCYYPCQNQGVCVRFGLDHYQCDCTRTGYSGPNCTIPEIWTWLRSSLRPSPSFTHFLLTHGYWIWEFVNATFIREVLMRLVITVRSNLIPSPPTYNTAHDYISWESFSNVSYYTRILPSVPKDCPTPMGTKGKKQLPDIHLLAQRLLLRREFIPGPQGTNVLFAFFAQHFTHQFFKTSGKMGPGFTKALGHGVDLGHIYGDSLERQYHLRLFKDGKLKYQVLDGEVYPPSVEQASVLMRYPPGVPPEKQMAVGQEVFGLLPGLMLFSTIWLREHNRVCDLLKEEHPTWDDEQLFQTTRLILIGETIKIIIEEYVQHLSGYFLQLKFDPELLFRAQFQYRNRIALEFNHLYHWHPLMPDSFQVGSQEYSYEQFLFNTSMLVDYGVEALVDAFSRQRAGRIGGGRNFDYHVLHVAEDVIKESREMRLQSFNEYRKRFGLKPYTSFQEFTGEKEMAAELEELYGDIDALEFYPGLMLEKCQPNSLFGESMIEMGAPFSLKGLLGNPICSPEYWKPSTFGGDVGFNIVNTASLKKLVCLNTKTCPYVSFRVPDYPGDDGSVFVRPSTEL

[5] = molecular target: Voltage-dependent L-type calcium channel subunit alpha-1C (Rattus norvegicus, UniProt P22002); assay type: functional
Sequence of Voltage-dependent L-type calcium channel subunit alpha-1C (P22002 whole entry): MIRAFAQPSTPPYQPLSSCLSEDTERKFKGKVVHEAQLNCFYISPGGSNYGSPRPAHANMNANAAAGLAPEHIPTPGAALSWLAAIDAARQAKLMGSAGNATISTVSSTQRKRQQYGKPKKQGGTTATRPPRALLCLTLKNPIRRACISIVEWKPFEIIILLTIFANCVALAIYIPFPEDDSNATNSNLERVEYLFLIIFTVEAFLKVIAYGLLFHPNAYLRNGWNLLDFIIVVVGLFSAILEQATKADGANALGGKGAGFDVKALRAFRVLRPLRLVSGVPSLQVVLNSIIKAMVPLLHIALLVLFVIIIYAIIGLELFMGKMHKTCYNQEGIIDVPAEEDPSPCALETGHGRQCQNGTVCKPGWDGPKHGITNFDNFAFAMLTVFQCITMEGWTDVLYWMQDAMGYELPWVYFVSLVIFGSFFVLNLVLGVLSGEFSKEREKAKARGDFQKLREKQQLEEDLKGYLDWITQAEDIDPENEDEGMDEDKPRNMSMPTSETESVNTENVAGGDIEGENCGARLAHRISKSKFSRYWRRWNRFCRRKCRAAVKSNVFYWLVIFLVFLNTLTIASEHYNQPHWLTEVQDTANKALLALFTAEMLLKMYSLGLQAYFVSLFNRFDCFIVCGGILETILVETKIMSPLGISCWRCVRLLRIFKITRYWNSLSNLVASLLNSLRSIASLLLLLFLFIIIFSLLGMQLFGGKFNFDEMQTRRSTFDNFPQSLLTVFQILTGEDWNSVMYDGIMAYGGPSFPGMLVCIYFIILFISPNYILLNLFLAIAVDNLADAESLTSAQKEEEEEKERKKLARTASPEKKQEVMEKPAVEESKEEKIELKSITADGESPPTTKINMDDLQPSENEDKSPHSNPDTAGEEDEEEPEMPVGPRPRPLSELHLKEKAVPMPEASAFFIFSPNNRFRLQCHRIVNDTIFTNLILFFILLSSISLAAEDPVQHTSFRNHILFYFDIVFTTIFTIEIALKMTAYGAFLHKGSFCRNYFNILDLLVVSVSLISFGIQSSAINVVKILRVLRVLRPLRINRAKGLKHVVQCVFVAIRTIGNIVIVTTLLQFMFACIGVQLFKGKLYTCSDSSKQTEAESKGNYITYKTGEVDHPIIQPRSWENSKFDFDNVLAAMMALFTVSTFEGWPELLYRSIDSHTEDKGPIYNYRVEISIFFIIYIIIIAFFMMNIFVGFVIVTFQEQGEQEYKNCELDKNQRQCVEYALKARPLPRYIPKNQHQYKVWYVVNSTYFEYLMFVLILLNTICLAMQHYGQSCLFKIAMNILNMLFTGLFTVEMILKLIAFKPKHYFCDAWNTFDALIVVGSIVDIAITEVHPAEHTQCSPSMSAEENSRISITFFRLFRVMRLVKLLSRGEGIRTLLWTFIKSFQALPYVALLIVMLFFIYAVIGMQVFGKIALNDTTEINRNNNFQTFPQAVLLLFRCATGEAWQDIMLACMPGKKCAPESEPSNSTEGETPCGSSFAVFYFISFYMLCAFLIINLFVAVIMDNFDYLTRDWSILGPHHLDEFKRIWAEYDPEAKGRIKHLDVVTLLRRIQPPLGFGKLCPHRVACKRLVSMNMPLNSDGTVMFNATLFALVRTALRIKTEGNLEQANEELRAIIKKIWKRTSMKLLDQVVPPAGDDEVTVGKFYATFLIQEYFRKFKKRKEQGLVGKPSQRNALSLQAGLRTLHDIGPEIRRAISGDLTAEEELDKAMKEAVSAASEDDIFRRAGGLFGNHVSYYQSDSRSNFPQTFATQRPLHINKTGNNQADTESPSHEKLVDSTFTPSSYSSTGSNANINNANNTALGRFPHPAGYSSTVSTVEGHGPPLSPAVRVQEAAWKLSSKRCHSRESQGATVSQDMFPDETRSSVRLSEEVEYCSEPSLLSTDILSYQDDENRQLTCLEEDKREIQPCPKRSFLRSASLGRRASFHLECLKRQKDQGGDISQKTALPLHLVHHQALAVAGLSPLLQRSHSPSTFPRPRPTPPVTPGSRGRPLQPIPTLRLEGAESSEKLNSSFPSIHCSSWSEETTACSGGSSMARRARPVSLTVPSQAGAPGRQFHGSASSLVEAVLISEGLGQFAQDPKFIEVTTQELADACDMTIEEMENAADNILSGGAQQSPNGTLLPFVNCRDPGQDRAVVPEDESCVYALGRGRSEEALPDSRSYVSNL

[6] = molecular target: T4, Equilibrative nucleoside transporter 1 (Homo sapiens, UniProt Q99808)
T4 sequence (Q99808 whole entry): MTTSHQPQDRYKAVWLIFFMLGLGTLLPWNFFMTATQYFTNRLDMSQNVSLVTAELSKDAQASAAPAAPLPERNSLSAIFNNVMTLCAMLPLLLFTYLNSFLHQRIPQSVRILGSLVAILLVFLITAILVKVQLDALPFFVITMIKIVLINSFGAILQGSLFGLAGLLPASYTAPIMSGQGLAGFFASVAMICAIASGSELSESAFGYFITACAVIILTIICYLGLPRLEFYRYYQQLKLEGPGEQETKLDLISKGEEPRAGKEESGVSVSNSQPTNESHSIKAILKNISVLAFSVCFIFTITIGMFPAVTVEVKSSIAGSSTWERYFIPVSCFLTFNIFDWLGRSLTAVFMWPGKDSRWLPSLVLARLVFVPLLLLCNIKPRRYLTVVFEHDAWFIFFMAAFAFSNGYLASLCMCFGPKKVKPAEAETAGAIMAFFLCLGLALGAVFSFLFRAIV

Glucocorticoid receptor = molecular target: T5, Glucocorticoid receptor (Homo sapiens, UniProt P04150)
T5 sequence (P04150 whole entry): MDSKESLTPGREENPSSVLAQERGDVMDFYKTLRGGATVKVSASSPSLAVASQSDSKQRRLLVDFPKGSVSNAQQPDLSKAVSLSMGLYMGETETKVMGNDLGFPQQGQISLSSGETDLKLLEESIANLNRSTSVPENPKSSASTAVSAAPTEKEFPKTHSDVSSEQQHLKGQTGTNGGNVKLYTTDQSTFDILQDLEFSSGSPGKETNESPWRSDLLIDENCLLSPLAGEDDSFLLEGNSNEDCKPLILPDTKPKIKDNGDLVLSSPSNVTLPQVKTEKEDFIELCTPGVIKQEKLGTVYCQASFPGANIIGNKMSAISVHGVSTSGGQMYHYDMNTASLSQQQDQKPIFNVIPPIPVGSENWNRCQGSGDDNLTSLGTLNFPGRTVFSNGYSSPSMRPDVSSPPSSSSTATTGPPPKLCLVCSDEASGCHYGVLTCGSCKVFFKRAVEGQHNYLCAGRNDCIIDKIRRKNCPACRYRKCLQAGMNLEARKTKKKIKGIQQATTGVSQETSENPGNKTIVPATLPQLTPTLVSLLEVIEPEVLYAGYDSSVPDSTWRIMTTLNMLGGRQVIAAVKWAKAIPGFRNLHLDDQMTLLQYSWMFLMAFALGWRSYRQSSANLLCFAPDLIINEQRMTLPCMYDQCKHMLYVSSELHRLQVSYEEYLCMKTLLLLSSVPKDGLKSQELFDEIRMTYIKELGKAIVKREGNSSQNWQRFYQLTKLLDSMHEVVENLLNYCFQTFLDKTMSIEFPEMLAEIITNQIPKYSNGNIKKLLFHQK
Also: assay procedure not described here.

Sequence of D(3) dopamine receptor (P35462 whole entry): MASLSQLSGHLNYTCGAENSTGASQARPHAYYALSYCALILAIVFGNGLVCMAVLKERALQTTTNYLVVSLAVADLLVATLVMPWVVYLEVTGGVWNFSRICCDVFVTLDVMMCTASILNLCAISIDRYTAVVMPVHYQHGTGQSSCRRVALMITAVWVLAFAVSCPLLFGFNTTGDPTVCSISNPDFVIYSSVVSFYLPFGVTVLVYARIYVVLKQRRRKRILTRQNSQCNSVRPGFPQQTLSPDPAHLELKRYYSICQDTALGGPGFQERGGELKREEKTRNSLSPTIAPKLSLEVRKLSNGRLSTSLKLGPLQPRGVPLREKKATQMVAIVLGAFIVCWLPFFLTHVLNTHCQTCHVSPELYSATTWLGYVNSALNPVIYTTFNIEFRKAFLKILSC

Compound	AC50 (D(3) dopamine receptor)	AC50 [1]	AC50 [2]	AC50 [3]	AC50 [4]	AC50 [5]	AC50 [6]	AC50 (Glucocorticoid receptor)
COc1ccc2c3c1O[C@H]1C(=O)CC[C@H]4[C@@H](C2)N(C)CC[C@]314 [HYDROCODONE]	> 10 µM	> 10 µM	> 10 µM	> 30 µM	> 30 µM	> 10 µM	> 30 µM	
CCN1C(=O)NC(c2ccccc2)C1=O (stereo not given) [ETHOTOIN]	> 30 µM	> 30 µM		> 30 µM	22 µM		> 30 µM	> 30 µM
CO/N=C(\C(=O)N[C@@H]1C(=O)N2C(C(=O)[O-])=C(C[n+]3ccc(N)n3CCO)CS[C@H]12)c1csc(N)n1 [CEFOSELIS]	> 30 µM	> 30 µM	> 30 µM	> 30 µM	> 30 µM	> 30 µM	> 30 µM	> 30 µM
CCCO[C@H]1[C@@H]([C@@H](COCc2ccc(Cl)cc2)OCc2ccc(Cl)cc2)OC(OCC)[C@@H]1O (stereo not given in full) [CLOBENOSIDE]	> 30 µM	> 30 µM	> 30 µM	> 30 µM	> 10 µM	> 30 µM	> 30 µM	> 30 µM
SITOSTEROLS	> 30 µM	> 30 µM	> 30 µM	> 30 µM		> 30 µM	> 30 µM	> 30 µM
CC(=O)OCC1=C(C(=O)O)N2C(=O)[C@@H](NC(=O)Cc3cccs3)[C@H]2SC1 [CEPHALOTHIN]	> 30 µM	> 30 µM		> 30 µM	> 30 µM		> 30 µM	> 30 µM
CCC(=O)O[C@H](CC(=O)O)C[N+](C)(C)C [LEVOCARNITINE PROPIONATE]	> 30 µM	> 30 µM		> 30 µM	> 30 µM		> 30 µM	> 30 µM
O=C(O)c1nn(Cc2ccc(Cl)cc2Cl)c2ccccc12 [LONIDAMINE]	> 30 µM	> 30 µM		> 30 µM	> 30 µM		> 30 µM	> 30 µM
OCCN(CCO)c1nc(N2CCCCC2)c2nc(N(CCO)CCO)nc(N3CCCCC3)c2n1 [DIPYRIDAMOLE]	> 30 µM	> 30 µM		3.5 µM	> 30 µM	> 30 µM		
CCCCOC(=O)c1ccc(N)cc1 [BUTAMBEN]	> 30 µM	> 30 µM	> 30 µM	> 30 µM	0.6 µM	> 30 µM	> 30 µM	> 30 µM
CC1=C(C(=O)O)N2C(=O)[C@@H](NC(=O)[C@H](N)C3=CCC=CC3)[C@H]2SC1 [CEPHRADINE]	> 30 µM	> 30 µM		> 30 µM	> 30 µM		> 30 µM	> 30 µM
CN1CCCN=C1/C=C/c1cccc(O)c1 [OXANTEL]	> 30 µM	> 30 µM		> 30 µM	> 30 µM	> 30 µM		> 30 µM
CC(=O)OCC(=O)[C@@]1(O)CC[C@H]2[C@@H]3CCC4=CC(=O)CC[C@]4(C)[C@@]3(F)[C@@H](O)C[C@@]21C [FLUDROCORTISONE ACETATE]	> 30 µM	> 30 µM	> 30 µM	> 30 µM	> 30 µM	> 30 µM	> 30 µM	
COC(=O)c1ccc2c(c1)NC(=O)/C2=C(\Nc1ccc(N(C)C(=O)CN2CCN(C)CC2)cc1)c1ccccc1 [NINTEDANIB]	> 30 µM	> 30 µM		> 30 µM	> 30 µM		> 30 µM	> 30 µM
COc1cc(N)cn[n+]1-c1ccccc1 [AMEZINIUM METILSULFATE]	> 30 µM	> 30 µM	> 30 µM	> 30 µM	> 30 µM	> 30 µM	> 30 µM	
NS(=O)(=O)c1ccc(N2CCCCS2(=O)=O)cc1	> 30 µM	> 30 µM	> 30 µM	> 30 µM	> 30 µM			> 30 µM
CCCCC[C@H](O)CC[C@@H]1[C@H]2Cc3cccc(OCC(=O)O)c3C[C@H]2C[C@H]1O [TREPROSTINIL]	> 30 µM	> 30 µM		> 30 µM	> 30 µM		> 30 µM	> 30 µM
CS(=O)(=O)NC(=O)CCC/C=C\C[C@H]1C(=O)C[C@@H](O)[C@@H]1/C=C/[C@@H](O)COc1ccccc1 [SULPROSTONE]	> 30 µM	> 30 µM		> 30 µM	> 30 µM		> 30 µM	> 30 µM
CCCCCCCC(=O)CC[C@@H]1[C@@H](C/C=C\CCCC(=O)O)[C@@H](O)C[C@H]1O [UNOPROSTONE]	> 30 µM	> 30 µM		> 30 µM	> 30 µM		> 30 µM	> 30 µM
CCCCOC(=O)C(=O)Nc1cccc(-c2nnn[nH]2)c1 [TAZANOLAST]	> 30 µM	> 30 µM	> 30 µM	> 30 µM	> 30 µM	> 30 µM	> 30 µM	
CCN(CC)CC(=O)Nc1c(C)cccc1C [LIDOCAINE]					> 30 µM		> 30 µM	> 30 µM
COc1nc(C)nc(Cl)c1N=C1NCCN1 [MOXONIDINE]	> 30 µM	6.5 µM		0.09 µM	> 30 µM	> 30 µM		> 30 µM
O=C(O)CCCC[C@@H]1SC[C@@H]2NC(=O)N[C@@H]21 [BIOTIN]	> 30 µM	> 10 µM			> 10 µM	> 10 µM	> 10 µM	> 10 µM
